Results taken from ChEMBL document CHEMBL1134903, “Synthesis and SAR of azalide 3,6-ketal aromatic derivatives as potent Gram-positive and Gram-negative antibacterial agents” (Bioorg Med Chem Lett, 2002).
Values after ≈ are worked out from the molar mass of the structure shown.

Legend:
Type in all cases: functional
[1] = test system: Staphylococcus aureus; experiment: Minimum inhibitory concentration against Staphylococcus aureus
[2] = test system: Pasteurella multocida; experiment: Minimum inhibitory concentration against Pasteurella multocida
[3] = test system: Escherichia coli; experiment: Minimum inhibitory concentration against Escherichia coli
[4] = test system: Staphylococcus aureus; experiment: Effective dose required to inhibit Staphylococcus aureus intraperitoneal (IP) infection model
[5] = test system: Staphylococcus aureus; experiment: Colony forming units of Staphylococcus aureus intramammary infection (IMI) model was determined at a dose of 15 mg/kg

| Compound | MIC [1] | MIC [2] | MIC [3] | ED50 [4] | Log CFU [5] | MIC [4] |
| --- | --- | --- | --- | --- | --- | --- |
| CC[C@H]1OC(=O)[C@H](C)[C@H]2OC3(CCN(Cc4cccnc4)CC3)O[C@](C)(C[C@@H](C)CN(C)[C@H](C)[C@@H](O)[C@]1(C)O)[C@H](O[C@@H]1O[C@H](C)C[C@H](N(C)C)[C@H]1O)[C@H]2C | 0.78 µg/mL (≈ 1.02 µM) | 0.03 µg/mL (≈ 0.0393 µM) | 0.39 µg/mL (≈ 0.511 µM) | > 20 mg/kg | – | – |
| CC[C@H]1OC(=O)[C@H](C)[C@H]2OC3(CCN(CCc4ccnc5ccccc45)CC3)O[C@](C)(C[C@@H](C)CN(C)[C@H](C)[C@@H](O)[C@]1(C)O)[C@H](O[C@@H]1O[C@H](C)C[C@H](N(C)C)[C@H]1O)[C@H]2C | 0.39 µg/mL (≈ 0.472 µM) | 0.05 µg/mL (≈ 0.0605 µM) | 1.56 µg/mL (≈ 1.89 µM) | > 20 mg/kg | – | – |
| CC[C@H]1OC(=O)[C@H](C)[C@H]2OC3(CCN(Cc4ccc(-c5ccccc5)cc4)CC3)O[C@](C)(C[C@@H](C)CN(C)[C@H](C)[C@@H](O)[C@]1(C)O)[C@H](O[C@@H]1O[C@H](C)C[C@H](N(C)C)[C@H]1O)[C@H]2C | 0.2 µg/mL (≈ 0.239 µM) | 0.1 µg/mL (≈ 0.119 µM) | 1.56 µg/mL (≈ 1.86 µM) | > 20 mg/kg | – | – |
| CC[C@H]1OC(=O)[C@H](C)[C@H]2OC3(CCN(Cc4ccncc4)CC3)O[C@](C)(C[C@@H](C)CN[C@H](C)[C@@H](O)[C@]1(C)O)[C@H](O[C@@H]1O[C@H](C)C[C@H](N(C)C)[C@H]1O)[C@H]2C | 1.56 µg/mL (≈ 2.08 µM) | 0.03 µg/mL (≈ 0.0401 µM) | 0.78 µg/mL (≈ 1.04 µM) | 6.4 mg/kg | – | – |
| CC[C@H]1OC(=O)[C@H](C)[C@H]2OC3(CCN(C(=O)c4cc5ccccc5[nH]4)CC3)O[C@](C)(C[C@@H](C)CN[C@H](C)[C@@H](O)[C@]1(C)O)[C@H](O[C@@H]1O[C@H](C)C[C@H](N(C)C)[C@H]1O)[C@H]2C | 0.78 µg/mL (≈ 0.974 µM) | 0.1 µg/mL (≈ 0.125 µM) | 3.13 µg/mL (≈ 3.91 µM) | > 20 mg/kg | – | – |
| CC[C@H]1OC(=O)[C@H](C)[C@H]2OC3(CCN(C(=O)c4occc4C)CC3)O[C@](C)(C[C@@H](C)CN[C@H](C)[C@@H](O)[C@]1(C)O)[C@H](O[C@@H]1O[C@H](C)C[C@H](N(C)C)[C@H]1O)[C@H]2C | 0.78 µg/mL (≈ 1.02 µM) | 0.1 µg/mL (≈ 0.131 µM) | 1.56 µg/mL (≈ 2.04 µM) | > 20 mg/kg | – | – |
| CC[C@H]1OC(=O)[C@H](C)[C@H]2OC3(CCN(CCc4ccc(Cl)cc4)CC3)O[C@](C)(C[C@@H](C)CN[C@H](C)[C@@H](O)[C@]1(C)O)[C@H](O[C@@H]1O[C@H](C)C[C@H](N(C)C)[C@H]1O)[C@H]2C | – | 0.01 µg/mL (≈ 0.0126 µM) | 0.2 µg/mL (≈ 0.251 µM) | – | – | – |
| CC[C@H]1OC(=O)[C@H](C)[C@H]2OC3(CCN(CCc4cccc(OC)c4)CC3)O[C@](C)(C[C@@H](C)CN[C@H](C)[C@@H](O)[C@]1(C)O)[C@H](O[C@@H]1O[C@H](C)C[C@H](N(C)C)[C@H]1O)[C@H]2C | 0.39 µg/mL (≈ 0.492 µM) | 0.03 µg/mL (≈ 0.0379 µM) | 0.3 µg/mL (≈ 0.379 µM) | – | – | – |
| CC[C@H]1OC(=O)[C@H](C)[C@H]2OC3(CCN(C(=O)c4c[nH]c5ccccc45)CC3)O[C@](C)(C[C@@H](C)CN[C@H](C)[C@@H](O)[C@]1(C)O)[C@H](O[C@@H]1O[C@H](C)C[C@H](N(C)C)[C@H]1O)[C@H]2C | 0.39 µg/mL (≈ 0.487 µM) | 0.1 µg/mL (≈ 0.125 µM) | 6.25 µg/mL (≈ 7.8 µM) | 11 mg/kg | – | – |
| CC[C@H]1OC(=O)[C@H](C)[C@H]2OC3(CCN(CCc4ccc(NC(C)=O)cc4)CC3)O[C@](C)(C[C@@H](C)CN(C)[C@H](C)[C@@H](O)[C@]1(C)O)[C@H](O[C@@H]1O[C@H](C)C[C@H](N(C)C)[C@H]1O)[C@H]2C | – | 0.05 µg/mL (≈ 0.06 µM) | 0.39 µg/mL (≈ 0.468 µM) | 9.6 mg/kg | 9.7 | – |
| CC[C@H]1OC(=O)[C@H](C)[C@H]2OC3(CCN(C(=O)c4cccs4)CC3)O[C@](C)(C[C@@H](C)CN(C)[C@H](C)[C@@H](O)[C@]1(C)O)[C@H](O[C@@H]1O[C@H](C)C[C@H](N(C)C)[C@H]1O)[C@H]2C | – | 0.05 µg/mL (≈ 0.0639 µM) | 1.56 µg/mL (≈ 1.99 µM) | – | – | > 20 µg/mL |
| CC[C@H]1OC(=O)[C@H](C)[C@H]2OC3(CCNCC3)O[C@](C)(C[C@@H](C)CN(C)[C@H](C)[C@@H](O)[C@]1(C)O)[C@H](O[C@@H]1O[C@H](C)C[C@H](N(C)C)[C@H]1O)[C@H]2C | 6.25 µg/mL (≈ 9.3 µM) | 0.05 µg/mL (≈ 0.0744 µM) | 0.2 µg/mL (≈ 0.298 µM) | – | – | – |
| CC[C@H]1OC(=O)[C@H](C)[C@H]2OC3(CCN(C(=O)c4cncc(Cl)c4Cl)CC3)O[C@](C)(C[C@@H](C)CN[C@H](C)[C@@H](O)[C@]1(C)O)[C@H](O[C@@H]1O[C@H](C)C[C@H](N(C)C)[C@H]1O)[C@H]2C | 3.13 µg/mL (≈ 3.76 µM) | 0.1 µg/mL (≈ 0.12 µM) | 3.13 µg/mL (≈ 3.76 µM) | > 20 mg/kg | – | – |
| CC[C@H]1OC(=O)[C@H](C)[C@H]2OC3(CCN(CCc4ccccc4)CC3)O[C@](C)(C[C@@H](C)CN(C)[C@H](C)[C@@H](O)[C@]1(C)O)[C@H](O[C@@H]1O[C@H](C)C[C@H](N(C)C)[C@H]1O)[C@H]2C | – | 0.02 µg/mL (≈ 0.0258 µM) | 0.075 µg/mL (≈ 0.0966 µM) | > 20 mg/kg | 7.3 | – |
| CC[C@H]1OC(=O)[C@H](C)[C@H]2OC3(CCN(CCc4ccc(Cl)c(Cl)c4)CC3)O[C@](C)(C[C@@H](C)CN(C)[C@H](C)[C@@H](O)[C@]1(C)O)[C@H](O[C@@H]1O[C@H](C)C[C@H](N(C)C)[C@H]1O)[C@H]2C | 0.2 µg/mL (≈ 0.237 µM) | 0.05 µg/mL (≈ 0.0592 µM) | 50 µg/mL (≈ 59.2 µM) | – | – | – |
